Common to all, as to assay type: cell-based
In assay [1] the target is T1, WIZ (Homo sapiens, UniProt O95785+Q96SW2).
T1 construct: HUDEP-2 cells engineered to express a HiBiT tag in either the WIZ (Widely interspaced zinc finger) or ZBTB7A
Put plainly: HUDEP-2 WIZ HiBiT degradation assay. The note with it: HiBiT-tagged WIZ degradation in HUDEP-2 cells, 24 hours of treatment; read-out: WIZ EC50. The procedure: (§1) WIZ Assay and ZBTB7A EC50 Assays. The HiBiT degradation assays for WIZ and ZBTB7A in HUDEP-2 cells were performed as described below. HUDEP-2 cells engineered to express a HiBiT tag in either the WIZ (Widely interspaced zinc finger) or ZBTB7A (Zinc Finger And BTB Domain Containing 7A) proteins were maintained in low attachment flasks in StemSpan SFEM II media supplemented with Penicillin-Streptomycin (50 U/mL), rhSCF (50 ng/mL), rhEPO (3 IU/mL), dexamethasone (0.4 μg/mL) and doxycycline (1 μg/mL). Prior to start of the assay, cell count and viability were measured by trypan blue exclusion using the Vi-cell XR cell viability analyzer.
For the HUDEP-2 WIZ HiBiT assay, cells were transferred to a 50 mL conical and centrifuged at 500 g for five minutes. Cells were resuspended in fresh StemSpan SFEM II media supplemented with Penicillin-Streptomycin (50 U/mL), rhSCF (50 ng/mL), rhEPO (3 IU/mL), dexamethasone (0.4 μg/mL) and doxycycline (1 μg/mL) at a density of 1.0×10^6 cells/ml. Forty microliters of cell suspension was dispensed into 384-well Low Flange White Flat Bottom Polystyrene TC-treated Microplates containing pre-dispensed compounds, using a VIAFLO 384 liquid hander, and placed in a 37° C. incubator with 5% CO2. […] After 24 hours of treatment, 40 μL Nano-Glo HiBiT Lytic Detection System reagent was dispensed into each well using a VIAFLO 384 liquid hander. Plates were incubated for 25 minutes at room temperature and the luminescence was read as relative luminescent units using the EnVision plate reader. EC50 and Y-min values were calculated using curves calculated from dotmatics software after the normalization to the DMSO control of 10 different concentrations: 10, 3.33, 1.11, 0.37, 0.12, 0.04 0.0137, 0.0046, 0.0015 and […] respectively.
In general terms: HiBiT is a short tag that completes a luciferase, so light tracks the accessible tagged protein.

Assay [2] concerns HbF. The assay can be described thus: HbF HiBiT induction assay in HUDEP-2 cells. The conditions noted are these: HUDEP-2 cells with HiBiT tag in HBG1/2, 72 hours of treatment; area under the dose response curve, higher AUC = greater HbF induction. The procedure: HbF HiBiT induction assay. The HiBiT induction assay for HbF in HUDEP-2 cells was performed as described below. HUDEP-2 cells engineered to express a HiBiT tag in HBG1/2 were maintained at a density of 0.1-1×10^6 cells/ml in StemSpan SFEM II supplemented with 1% penicillin/streptomycin, hSCF (50 ng/mL), erythropoietin (EPO; 3 IU/mL), dexamethasone (DEX; 0.4 μg/mL), and doxycycline hyclate (DOX; 1 μg/mL). The cells were cultured in low adherence flasks, in a humidified incubator, set at 37° C. with 5% CO2. Cell counts and viability were measured by trypan blue exclusion using the Vi-CELL XR cell viability analyzer and the cell growth was consistently maintained in log phase.
Prior to the start of experiments, HbF HiBiT-tagged HUDEP-2 cells were transferred to a 50 mL conical and centrifuged at 500×g for 5 minutes, the supernatant removed, and the pellet washed in 5 mL of 1×PBS. The washed cells were centrifuged again at 500×g for 5 minutes and resuspended in IMDM containing; 1×glutamine, 1×penicillin/streptomycin, holo-transferrin (330 μg/mL), heparin (2 IU/mL), r-human insulin (10 μg/mL), EPO (3 IU/mL), 5% human plasma, hSCF (100 ng/mL) and DOX (1 μg/mL) to a final density of 0.3×10^6 cells/mL. Forty microliters of cell suspension were dispensed into 384-well Low Flange White Flat Bottom Polystyrene TC-treated Microplates containing pre-dispensed compounds, using a VIAFLO 384 liquid hander, and placed in a humidified incubator at 37° C. with 5% CO2. […] After 72 hours of treatment, 40 μL of Nano-Glo HiBiT Lytic Solution (prepared according to manufacturer's instructions) were dispensed into each well using a VIAFLO 384 liquid handler, and the plates were shaken for 20 seconds. Plates were incubated for 20 minutes at room temperature, and the luminescence was read as relative luminescent units using an EnVision plate reader.
Dose response curves were generated, and EC50, Ymax, and then area under the curve (AUC) values were calculated. HbF induction was measured using the calculated area under the curve (AUC) value, with higher AUC values indicative of greater HbF induction relative to lower AUC values.

Assay [3] deals with T2, ZBTB7A (Homo sapiens, UniProt O95365+Q96SW2).
T2 construct: HUDEP-2 cells engineered to express a HiBiT tag in either the WIZ (Widely interspaced zinc finger) or ZBTB7A
T2 sequence (O95365 whole entry): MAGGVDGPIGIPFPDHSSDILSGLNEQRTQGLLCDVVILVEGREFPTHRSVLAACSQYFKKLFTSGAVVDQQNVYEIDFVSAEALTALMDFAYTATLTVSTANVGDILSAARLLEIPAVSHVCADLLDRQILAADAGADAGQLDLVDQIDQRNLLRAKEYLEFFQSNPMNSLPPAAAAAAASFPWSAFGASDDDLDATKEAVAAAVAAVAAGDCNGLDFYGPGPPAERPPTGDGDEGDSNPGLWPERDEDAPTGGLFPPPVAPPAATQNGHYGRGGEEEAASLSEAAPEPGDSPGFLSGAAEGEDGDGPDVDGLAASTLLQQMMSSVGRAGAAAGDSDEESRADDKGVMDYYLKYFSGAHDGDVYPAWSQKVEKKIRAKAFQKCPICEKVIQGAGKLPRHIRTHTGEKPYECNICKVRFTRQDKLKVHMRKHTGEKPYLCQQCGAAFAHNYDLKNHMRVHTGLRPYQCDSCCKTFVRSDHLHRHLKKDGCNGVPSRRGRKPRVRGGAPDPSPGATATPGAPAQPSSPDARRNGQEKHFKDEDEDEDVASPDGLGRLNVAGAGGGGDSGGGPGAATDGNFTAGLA
T2 sequence (Q96SW2 whole entry): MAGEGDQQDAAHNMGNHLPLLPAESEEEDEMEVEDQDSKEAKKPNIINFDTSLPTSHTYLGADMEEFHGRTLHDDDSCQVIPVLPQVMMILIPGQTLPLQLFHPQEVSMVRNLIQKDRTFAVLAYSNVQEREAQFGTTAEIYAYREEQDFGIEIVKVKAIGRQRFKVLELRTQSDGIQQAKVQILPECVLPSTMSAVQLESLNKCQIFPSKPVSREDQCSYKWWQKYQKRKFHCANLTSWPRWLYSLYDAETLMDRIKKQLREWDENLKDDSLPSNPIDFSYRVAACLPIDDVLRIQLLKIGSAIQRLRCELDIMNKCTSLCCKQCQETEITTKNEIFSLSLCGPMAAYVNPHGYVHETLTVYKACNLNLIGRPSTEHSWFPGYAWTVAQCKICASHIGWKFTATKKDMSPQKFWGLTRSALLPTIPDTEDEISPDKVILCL
T2 sequence (Q16531 whole entry partner): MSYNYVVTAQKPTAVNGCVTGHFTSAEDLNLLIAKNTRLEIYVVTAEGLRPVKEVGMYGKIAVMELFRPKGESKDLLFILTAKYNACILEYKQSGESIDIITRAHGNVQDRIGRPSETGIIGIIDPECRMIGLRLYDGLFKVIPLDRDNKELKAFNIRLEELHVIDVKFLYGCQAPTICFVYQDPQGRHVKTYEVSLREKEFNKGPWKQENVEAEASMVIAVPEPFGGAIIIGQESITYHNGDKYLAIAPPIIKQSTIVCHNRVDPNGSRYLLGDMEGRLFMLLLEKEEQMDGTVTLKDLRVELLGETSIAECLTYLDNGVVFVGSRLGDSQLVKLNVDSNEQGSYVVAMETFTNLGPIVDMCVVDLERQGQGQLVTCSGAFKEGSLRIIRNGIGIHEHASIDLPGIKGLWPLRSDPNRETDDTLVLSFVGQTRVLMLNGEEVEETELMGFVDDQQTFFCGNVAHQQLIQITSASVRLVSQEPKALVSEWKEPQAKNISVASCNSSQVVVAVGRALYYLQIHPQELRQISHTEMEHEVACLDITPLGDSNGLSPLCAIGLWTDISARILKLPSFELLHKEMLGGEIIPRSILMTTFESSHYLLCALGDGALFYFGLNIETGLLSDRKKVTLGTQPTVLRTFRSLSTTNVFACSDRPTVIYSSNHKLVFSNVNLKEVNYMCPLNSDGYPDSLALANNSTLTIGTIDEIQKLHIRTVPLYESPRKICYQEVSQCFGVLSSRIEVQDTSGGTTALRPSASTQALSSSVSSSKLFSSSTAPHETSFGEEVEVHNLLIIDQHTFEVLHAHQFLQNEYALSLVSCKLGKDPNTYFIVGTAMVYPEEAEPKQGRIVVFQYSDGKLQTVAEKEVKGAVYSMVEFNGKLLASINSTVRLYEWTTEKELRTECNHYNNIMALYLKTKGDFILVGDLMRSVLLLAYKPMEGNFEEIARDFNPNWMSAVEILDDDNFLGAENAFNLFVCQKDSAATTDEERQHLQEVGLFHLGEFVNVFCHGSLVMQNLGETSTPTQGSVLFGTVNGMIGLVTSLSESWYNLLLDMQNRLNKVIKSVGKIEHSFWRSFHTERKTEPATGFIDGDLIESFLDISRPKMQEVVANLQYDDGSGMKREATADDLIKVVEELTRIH
Put plainly: HUDEP-2 ZBTB7A HiBiT degradation assay. The note with it: HiBiT-tagged ZBTB7A degradation in HUDEP-2 cells, 24 hours of treatment; read-out: ZBTB7A EC50. The procedure: as §1
For the HUDEP-2 ZBTB7A HiBiT assay, cell count and viability were measured by trypan blue exclusion using the Vi-cell XR cell viability analyzer and the cells were transferred to a 50 mL conical and centrifuged at 500 g for five minutes. Cells were resuspended in fresh IMDM media supplemented with L-Glutamine (1×), Penicillin-Streptomycin (50 U/mL), holo-transferrin (330 μg/mL), heparin (2 IU/mL), r-human Insulin (10 μg/mL), rhEPO (3 IU/mL), rhSCF (100 ng/mL)+Dox (1 μg/mL) and 5% human plasma in low attachment flasks, which were placed in a 37° C. incubator with 5% CO2. After 48 hours, cell count and viability were measured by trypan blue exclusion using the Vi-cell XR cell viability analyzer. The HUDEP-2 ZBTB7A cells were transferred to a 50 mL conical, centrifuged at 500 g for five minutes and resuspended at a density of 1.0×10^6 cells/ml in IMDM media supplemented with L-Glutamine (1×), Penicillin-Streptomycin (50 U/mL), holo-transferrin (330 μg/mL), heparin (2 IU/mL), r-human Insulin (10 μg/mL), rhEPO (3 IU/mL), rhSCF (100 ng/mL)+Dox (1 μg/mL) and 5% human plasma. Forty microliters of cell suspension was dispensed into 384-well Low Flange White Flat Bottom Polystyrene TC-treated Microplates containing pre-dispensed compounds, using a VIAFLO 384 liquid hander, and placed in a 37° C. incubator with 5% CO2. […] After 24 hours of treatment, 40 μL Nano-Glo HiBiT Lytic Detection System reagent was dispensed into each well using a VIAFLO 384 liquid hander. Plates were incubated for 25 minutes at room temperature and the luminescence was read as relative luminescent units using the EnVision plate reader. EC50 and Y-min values were calculated using curves calculated from dotmatics software after the normalization to the DMSO control of 10 different concentrations: 10, 3.33, 1.11, 0.37, 0.12, 0.04 0.0137, 0.0046, 0.0015 and […] respectively.

Molecules are shown by their SMILES.

T1 sequence (O95785 whole entry): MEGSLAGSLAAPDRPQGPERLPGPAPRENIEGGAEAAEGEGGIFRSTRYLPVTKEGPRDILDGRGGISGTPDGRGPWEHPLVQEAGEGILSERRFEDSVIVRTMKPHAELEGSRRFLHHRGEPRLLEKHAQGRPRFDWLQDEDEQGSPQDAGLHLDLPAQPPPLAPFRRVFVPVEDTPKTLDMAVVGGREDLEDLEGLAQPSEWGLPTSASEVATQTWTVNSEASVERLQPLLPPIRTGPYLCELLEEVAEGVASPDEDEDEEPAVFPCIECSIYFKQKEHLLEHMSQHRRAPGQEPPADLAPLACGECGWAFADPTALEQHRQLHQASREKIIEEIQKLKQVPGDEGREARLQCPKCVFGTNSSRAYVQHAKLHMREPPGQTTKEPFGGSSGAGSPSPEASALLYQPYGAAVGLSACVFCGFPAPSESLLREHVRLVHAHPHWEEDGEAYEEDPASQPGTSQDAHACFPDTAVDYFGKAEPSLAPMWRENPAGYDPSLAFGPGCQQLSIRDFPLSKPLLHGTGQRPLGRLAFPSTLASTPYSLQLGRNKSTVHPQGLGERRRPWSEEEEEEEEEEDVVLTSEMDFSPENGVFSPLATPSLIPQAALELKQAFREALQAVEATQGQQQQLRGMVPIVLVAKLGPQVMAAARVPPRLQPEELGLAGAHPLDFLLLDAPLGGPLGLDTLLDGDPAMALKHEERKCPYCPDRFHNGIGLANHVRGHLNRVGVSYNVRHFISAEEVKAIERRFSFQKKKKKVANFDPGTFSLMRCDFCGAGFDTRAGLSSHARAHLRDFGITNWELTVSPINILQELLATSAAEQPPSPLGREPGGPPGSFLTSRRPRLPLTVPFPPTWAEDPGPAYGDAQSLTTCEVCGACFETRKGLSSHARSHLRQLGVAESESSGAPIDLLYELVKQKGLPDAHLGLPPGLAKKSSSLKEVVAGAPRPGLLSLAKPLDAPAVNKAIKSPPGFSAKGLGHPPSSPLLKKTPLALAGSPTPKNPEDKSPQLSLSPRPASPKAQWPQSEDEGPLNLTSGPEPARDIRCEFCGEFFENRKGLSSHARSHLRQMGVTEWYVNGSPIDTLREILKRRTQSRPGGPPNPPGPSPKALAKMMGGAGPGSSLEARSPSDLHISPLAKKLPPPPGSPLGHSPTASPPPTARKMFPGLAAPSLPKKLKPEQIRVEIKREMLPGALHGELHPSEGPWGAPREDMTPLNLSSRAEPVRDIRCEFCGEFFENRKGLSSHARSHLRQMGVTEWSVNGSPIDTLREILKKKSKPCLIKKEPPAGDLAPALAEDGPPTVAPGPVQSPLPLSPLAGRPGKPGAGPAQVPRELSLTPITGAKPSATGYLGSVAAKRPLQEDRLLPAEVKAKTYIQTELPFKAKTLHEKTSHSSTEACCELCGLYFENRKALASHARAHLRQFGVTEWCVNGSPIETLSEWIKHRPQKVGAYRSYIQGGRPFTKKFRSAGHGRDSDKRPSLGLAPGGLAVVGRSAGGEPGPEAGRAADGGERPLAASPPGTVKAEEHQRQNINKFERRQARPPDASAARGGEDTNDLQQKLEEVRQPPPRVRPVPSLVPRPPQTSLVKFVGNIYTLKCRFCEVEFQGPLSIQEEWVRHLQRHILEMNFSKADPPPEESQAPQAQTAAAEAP
T1 sequence (Q96SW2 whole entry): as the sequence (Q96SW2 whole entry) above
T1 sequence (Q16531 whole entry partner): as the sequence (Q16531 whole entry partner) above

On to `Cc1cc(-c2cc3c(cc2Nc2cccc4c2C(=O)N([C@H]2CCC(=O)NC2=O)C4=O)N(C)C(=O)OC3)ccn1` [Compound 11, (S)-2-(2,6-dioxopiperidin-3-yl)-4-((1-methyl-6-(2-methylpyridin-4-yl)-2-oxo-1,4-dihydro-2H-benzo[d][1,3]oxazin-7-yl)amino)isoindoline-1,3-dione], for which the DC50 stood at 21 nM in assay [1] and 17 nM in assay [3]. The “HBF AUC” value in assay [2] was “++ (++ = 100 ≤ AUC < 150)”.
For `Cc1cc(-c2cc3c(cc2Nc2cccc4c2C(=O)N([C@@H]2CCC(=O)NC2=O)C4=O)N(C)C(=O)OC3)ccn1` [Compound 12, (R)-2-(2,6-dioxopiperidin-3-yl)-4-((1-methyl-6-(2-methylpyridin-4-yl)-2-oxo-1,4-dihydro-2H-benzo[d][1,3]oxazin-7-yl)amino)isoindoline-1,3-dione] the same measures were 37 nM, 34 nM and “+ (+ = 15 ≤ AUC < 100)”.
In the case of `Cc1cc(-c2cc3c(cc2Nc2cccc4c2C(=O)N(C2CCC(=O)NC2=O)C4=O)N(C)C(=O)CO3)cc(F)c1F` (stereo not drawn) [Compound 13, 4-((7-(3,4-difluoro-5-methylphenyl)-4-methyl-3-oxo-3,4-dihydro-2H-benzo[b][1,4]oxazin-6-yl)amino)-2-(2,6-dioxopiperidin-3-yl)isoindoline-1,3-dione], the figures for the DC50 in assay [1] and in assay [3] were 50 nM and 38 nM, respectively. In addition, the “HBF AUC” value in assay [2] is listed as “+ (+ = 15 ≤ AUC < 100)”.
For `CNc1cc(-c2cc3c(cc2Nc2cccc4c2C(=O)N(C2CCC(=O)NC2=O)C4=O)N(C)C(=O)CO3)ccn1` (stereo not drawn) [Compound 14, 2-(2,6-dioxopiperidin-3-yl)-4-((4-methyl-7-(2-(methylamino)pyridin-4-yl)-3-oxo-3,4-dihydro-2H-benzo[b][1,4]oxazin-6-yl)amino)isoindoline-1,3-dione] the same measures were 12 nM, 17 nM and “+ (+ = 15 ≤ AUC < 100)”.
For `CN(C)c1cc(-c2cc3c(cc2Nc2cccc4c2C(=O)N(C2CCC(=O)NC2=O)C4=O)N(C)C(=O)CO3)ccn1` (stereo not drawn) [Compound 15, 4-((7-(2-(dimethylamino)pyridin-4-yl)-4-methyl-3-oxo-3,4-dihydro-2H-benzo[b][1,4]oxazin-6-yl)amino)-2-(2,6-dioxopiperidin-3-yl)isoindoline-1,3-dione], the DC50 was 7 nM in assay [1] and 22 nM in assay [3]. The “HBF AUC” value in assay [2] is listed as “+ (+ = 15 ≤ AUC < 100)”.
With `CCOc1cc(-c2cc3c(cc2Nc2cccc4c2C(=O)N(C2CCC(=O)NC2=O)C4=O)N(C)C(=O)CO3)cc(C)n1` (stereo not drawn) [Compound 16, 2-(2,6-dioxopiperidin-3-yl)-4-((7-(2-ethoxy-6-methylpyridin-4-yl)-4-methyl-3-oxo-3,4-dihydro-2H-benzo[b][1,4]oxazin-6-yl)amino)isoindoline-1,3-dione], the DC50 in assay [1] was determined as 32 nM; in assay [3], 73 nM. In addition, the “HBF AUC” value in assay [2] is given as “+ (+ = 15 ≤ AUC < 100)”.
For `COc1cc(-c2cc3c(cc2Nc2cccc4c2C(=O)N([C@H]2CCC(=O)NC2=O)C4=O)N(C)C(=O)CO3)ccn1` [Compound 17, (S)-2-(2,6-dioxopiperidin-3-yl)-4-((7-(2-methoxypyridin-4-yl)-4-methyl-3-oxo-3,4-dihydro-2H-benzo[b][1,4]oxazin-6-yl)amino)isoindoline-1,3-dione] the same measures were 13 nM, 18 nM and “+++ (+++ = AUC ≥ 150)”.
Take `Cc1cc(-c2cc3c(cc2Nc2cccc4c2C(=O)N([C@H]2CCC(=O)NC2=O)C4=O)N(C)C(=O)CO3)ccn1` [Compound 18, (S)-2-(2,6-dioxopiperidin-3-yl)-4-((4-methyl-7-(2-methylpyridin-4-yl)-3-oxo-3,4-dihydro-2H-benzo[b][1,4]oxazin-6-yl)amino)isoindoline-1,3-dione]: the DC50 in assay [1] and in assay [3] was 11 nM in each case. The “HBF AUC” value in assay [2] is listed as “+++ (+++ = AUC ≥ 150)”.
In the case of `Cc1cc(-c2cc3c(cc2Nc2cccc4c2C(=O)N(C2CCC(=O)NC2=O)C4=O)N(C)C(=S)CC3)ccn1` (stereo not drawn) [Compound 19, 2-(2,6-dioxopiperidin-3-yl)-4-((1-methyl-6-(2-methylpyridin-4-yl)-2-thioxo-1,2,3,4-tetrahydroquinolin-7-yl)amino)isoindoline-1,3-dione], the DC50 in assay [1] was determined as 28 nM; in assay [3], 21 nM. Besides, in assay [2], the “HBF AUC” value is reported as “++ (++ = 100 ≤ AUC < 150)”.
For the compound `CC[C@@H]1Oc2cc(-c3ccnc(C)c3)c(Nc3cccc4c3C(=O)N([C@H]3CCC(=O)NC3=O)C4=O)cc2N(C)C1=O` [Compound 20, 2-((S)-2,6-dioxopiperidin-3-yl)-4-(((S)-2-ethyl-4-methyl-7-(2-methylpyridin-4-yl)-3-oxo-3,4-dihydro-2H-benzo[b][1,4]oxazin-6-yl)amino)isoindoline-1,3-dione], the DC50 in assay [1] amounted to 14 nM; in assay [3] it was 12 nM. The “HBF AUC” value in assay [2] is given as “+ (+ = 15 ≤ AUC < 100)”.
For `Cc1cc(-c2cc3c(cc2Nc2cccc4c2C(=O)N([C@H]2CCC(=O)NC2=O)C4=O)N(C)C(=O)O[C@@H]3C)ccn1` [Compound 21, 4-(((R)-1,4-dimethyl-6-(2-methylpyridin-4-yl)-2-oxo-1,4-dihydro-2H-benzo[d][1,3]oxazin-7-yl)amino)-2-((S)-2,6-dioxopiperidin-3-yl)isoindoline-1,3-dione], in that order: 17 nM, 12 nM and “+ (+ = 15 ≤ AUC < 100)”.
